Laboratory results reported in patent US20220002288A1, “MONOBACTAM COMPOUNDS AND USE THEREFOR” (priority 2018, published 2022).
Where a name gives a salt, the structure may show the parent alone.

What was measured:
[1] = system: clinically isolated Pseudomonas aeruginosa; experiment: MIC experiment of clinically sourced bacterial strains; type: cell-based
Description: (§1) Compounds: the compound of Example 1 and Compound C of Comparative Example 3. Both test compounds were dissolved and diluted with DMSO, and the final concentrations were prepared as 64, 32, 16, 8, 4, 2, 1, 0.5, 0.25, 0.125, 0.0625 μg/mL in the experiment.
(§2) Bacterial strains: clinically isolated Acinetobacter baumannii, Pseudomonas aeruginosa, Klebsiella pneumoniae and Escherichia coli, all provided by HD Biosciences (Shanghai) Co., Ltd.
(§3) Medium: Trypticase soy agar (TSA) (BD BBL 211043), and Cation-adjusted Mueller Hinton broth (CAMHB) (BD BBL212322).
(§4) The experimental method was the same as that in the above Experimental Example 1.

[2] = system: clinically isolated Acinetobacter baumannii; experiment: as above; type: cell-based; conditions: for MIC: Acinetobacter baumannii
Description: as §1, §2, §3, §4

[3] = system: clinically isolated Klebsiella pneumoniae; experiment: as above; type: cell-based; conditions: for MIC: Klebsiella pneumoniae
Description: as §1, §2, §3, §4

[4] = Pharmacokinetics of the compounds in mice; type: in vivo, BALB/c mice
How it was run: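 Male BALB/c mice (16-24 g) got a single 2 mg/kg tail-vein dose in physiological saline (0.2 mg/mL). Orbital plexus blood taken at 5, 15, 30 min and 1, 2, 4 h. Plasma was protein-precipitated with methanol:acetonitrile, and compound was quantified by LC-MS/MS for PK parameters.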

[5] = mouse, male BALB/c mice, single intravenous dose 2 mg/kg, plasma

CC1(C)[C@H](NC(=O)/C(=N\O[C@@H](COc2ccc(C(=O)Nc3cn(CCCN)[n+](CC4CNC4)c3)cc2)C(=O)O)c2csc(N)n2)C(=O)N1OS(=O)(=O)[O-] [Example 1, (S)-3-((Z)-2-(((S)-2-(4-((1-(3-aminopropyl)-2-(azetidin-3-ylmethyl)-1H-pyrazol-2-ium-4-yl)carbamoyl)phenoxy)-1-carboxyethoxy)imino)-2-(2-aminothiazol-4-yl)acetylamino)-2,2-dimethyl-4-oxoazetidin-1-yl Sulfate]
MIC ([1]; clinical strain P7): 1 µg/mL | MIC ([1]; clinical strain P43): 0.25 µg/mL | MIC ([1]; clinical strain P155): 1 µg/mL | MIC ([1]; clinical strain P157): 1 µg/mL | MIC ([1]; clinical strain P162): 1 µg/mL | MIC ([2]; clinical strain A0242702): ≤ 0.063 µg/mL | MIC ([2]; clinical strain A0244122): 0.5 µg/mL | MIC ([2]; clinical strain A0248164): 1 µg/mL | MIC ([2]; clinical strain A0248384): 1 µg/mL | MIC ([2]; clinical strain A0252247): ≤ 0.063 µg/mL | MIC ([2]; clinical strain A0254384): ≤ 0.063 µg/mL | MIC ([2]; clinical strain A0255830): 4 µg/mL | MIC ([2]; clinical strain A0257674): ≤ 0.063 µg/mL | MIC ([2]; clinical strain A0258522): ≤ 0.063 µg/mL | MIC ([2]; clinical strain A0262855): ≤ 0.063 µg/mL | MIC ([2]; clinical strain A0270386): 1 µg/mL | MIC ([2]; clinical strain A0272260): 0.125 µg/mL | MIC ([2]; clinical strain A0273375): 1 µg/mL | MIC ([2]; clinical strain A0273826): 4 µg/mL | MIC ([2]; clinical strain A0274925): 0.125 µg/mL | MIC ([2]; clinical strain A0283307): ≤ 0.063 µg/mL | MIC ([2]; clinical strain A0284214): ≤ 0.063 µg/mL | MIC ([2]; clinical strain A0284295): ≤ 0.063 µg/mL | MIC ([2]; clinical strain A0284552): 0.5 µg/mL | MIC ([2]; clinical strain A0285002): 1 µg/mL | MIC ([2]; clinical strain A0285050): 0.125 µg/mL | MIC ([2]; clinical strain A0285231): 1 µg/mL | MIC ([2]; clinical strain A0285299): ≤ 0.063 µg/mL | MIC ([2]; clinical strain A0285369): ≤ 0.063 µg/mL | MIC ([2]; clinical strain A0285909): 4 µg/mL | MIC ([2]; clinical strain A0286065): 1 µg/mL | MIC90 ([2]; clinically isolated Acinetobacter baumannii): 4 µg/mL | MIC value relative to that of Compound C ([2]; strains A0244122, A0255830, A0273826, A0285299, A0285909): ¼ | MIC ([3]; clinical strain Kp309): ≤ 0.063 µg/mL | MIC ([3]; clinical strain Kp310): ≤ 0.063 µg/mL | MIC ([3]; clinical strain Kp472): 0.125 µg/mL | MIC ([3]; clinical strain Kp510): 0.25 µg/mL | MIC value relative to that of Compound C ([3]; strain Kp309): ¼ | blood concentration (CO) ([4]; intravenous dose of 2 mg/kg): 11548 ng/mL | Vd ([4]; male, BALB/c, mouse, plasma, iv, 2 mg/kg, male BALB/c mice, single intravenous dose 2 mg/kg, plasma, read-out: VSS): 0.25 L/kg | AUC(0-inf) [4, 5]: 3180 ng·h/mL | AUC(0-t) [4, 5]: 3140 ng·h/mL | C0 [4, 5]: 11500 ng/mL | clearance [4, 5]: 10.8 mL/min/kg | half-life [4, 5]: 20.4 min
